Reference: ChEMBL document CHEMBL1201862, “PubChem BioAssay data set” (2004)
The source made the active and inactive calls.

Tests used:
[1] = NIH-3T3 fibroblast cytotoxicity, dose response, cytotoxicity control, cell-based, fluorescence, Alamar Blue, secondary assay (AID 2327); type: functional;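 further: NIH-3T3 mouse fibroblasts cultured with fluconazole at 8 µg/mL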
[2] = fluconazole-exposed Candida albicans growth modulators – fluorescence, retest, confirmation (AID 2467); type: functional, cell-based
[3] = Trypanosoma cruzi growth suppression in host cells – NIH3T3 host cells, beta-gal luminescence, confirmation (AID 2044); type: functional, cell-based;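 further: intracellular parasites grown in NIH/3T3 mouse fibroblasts as host cells; luminescent beta-galactosidase reporter signal from transgenic T. cruzi replicating inside host cells; inhibitors lower the luminescence signal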
[4] = NIH3T3 cell viability loss – ATP luminescence, mouse fibroblasts, counter-screen, dose response (AID 2010); type: functional, cell-based;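 further: cells exposed to compound for about 90 hours before reading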
[5] = blockers of HIV-1 envelope-mediated cell-cell fusion – cherry-pick, dose response (AID 652057); type: functional, cell-based
[6] = viability loss in CEM21 cells – cell-based, CellTiter-Glo luminescence, cherry-picked, cytotoxicity control for viral fusion inhibitor project, dose response (AID 652042); type: functional;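 further: potency for signal decrease meaning cytotoxicity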
[7] = blockers of HIV-1 ZM109 envelope-driven cell-cell fusion – HeLa effector, CEM target cells, luciferase, cherry-pick, dose response (AID 652058); type: functional, cell-based;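 further: luciferase signal from HIV-1 Env mediated cell-cell fusion of effector and target cells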
[8] = off-target signal loss in HeLa-CEM21 co-culture – HeLa F-luc CTL cells, cherry-picked, counter-screen for HIV-1 Env fusion inhibitor project, dose response (AID 652040); type: functional, cell-based;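 further: potency for signal decrease marking cytotoxic or nonspecific inhibition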
[9] = HIV-1 AD8 envelope cell-cell fusion blockers – cherry-pick, dose response (AID 652062); type: functional, cell-based;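 further: luciferase signal from cell-cell fusion driven by HIV-1 clade B AD8 Env; potency is for inhibitors of fusion seen as a drop in luminescence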
[10] = molecular target: FAD-linked sulfhydryl oxidase ALR (Homo sapiens, UniProt P55789); test: ALR-catalysed DTT oxidation blockers – biochemical, H2O2 detection, luminescence, cherry-pick, dose response (AID 493248)
[11] = molecular target: T1, Replicative DNA helicase DnaB (Mycobacterium tuberculosis, UniProt P9WMR3); test: DnaB intein splicing inhibitors, dose response, biochemical, cell-free fluorescence (AID 449749); type: functional
T1 sequence (P9WMR3 whole entry): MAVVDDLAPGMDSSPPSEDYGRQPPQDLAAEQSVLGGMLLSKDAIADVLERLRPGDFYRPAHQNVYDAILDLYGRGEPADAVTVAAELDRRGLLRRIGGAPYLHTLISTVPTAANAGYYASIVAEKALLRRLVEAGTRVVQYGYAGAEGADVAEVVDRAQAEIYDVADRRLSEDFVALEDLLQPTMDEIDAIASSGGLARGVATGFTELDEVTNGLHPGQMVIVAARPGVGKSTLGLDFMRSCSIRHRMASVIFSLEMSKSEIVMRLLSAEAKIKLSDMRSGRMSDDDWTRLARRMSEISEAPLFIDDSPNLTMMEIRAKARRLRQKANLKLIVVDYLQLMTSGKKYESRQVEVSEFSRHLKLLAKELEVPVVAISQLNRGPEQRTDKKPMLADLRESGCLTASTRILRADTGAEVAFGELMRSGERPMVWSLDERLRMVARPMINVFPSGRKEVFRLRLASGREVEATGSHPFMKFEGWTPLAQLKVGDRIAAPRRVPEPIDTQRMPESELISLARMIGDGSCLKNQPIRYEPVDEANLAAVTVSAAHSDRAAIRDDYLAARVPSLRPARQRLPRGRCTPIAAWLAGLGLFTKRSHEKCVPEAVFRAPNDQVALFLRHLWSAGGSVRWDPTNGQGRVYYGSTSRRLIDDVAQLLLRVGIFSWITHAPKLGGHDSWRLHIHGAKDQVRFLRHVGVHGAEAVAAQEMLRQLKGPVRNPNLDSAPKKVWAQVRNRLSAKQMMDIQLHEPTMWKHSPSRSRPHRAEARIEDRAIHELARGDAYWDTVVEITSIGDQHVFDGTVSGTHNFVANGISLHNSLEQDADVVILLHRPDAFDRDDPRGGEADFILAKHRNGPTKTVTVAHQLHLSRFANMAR

Protein RecA = molecular target: T2, Protein RecA (Mycobacterium tuberculosis, UniProt P9WHJ3); test: Fluorescence Cell-Free Homogeneous Dose Retest to Identify Inhibitors of RecA-Intein Splicing Activity. [Related pubchem assays (depositor defined):AID2097, AID2223, AID489010, AID492950]; type: functional
T2 sequence (P9WHJ3 whole entry): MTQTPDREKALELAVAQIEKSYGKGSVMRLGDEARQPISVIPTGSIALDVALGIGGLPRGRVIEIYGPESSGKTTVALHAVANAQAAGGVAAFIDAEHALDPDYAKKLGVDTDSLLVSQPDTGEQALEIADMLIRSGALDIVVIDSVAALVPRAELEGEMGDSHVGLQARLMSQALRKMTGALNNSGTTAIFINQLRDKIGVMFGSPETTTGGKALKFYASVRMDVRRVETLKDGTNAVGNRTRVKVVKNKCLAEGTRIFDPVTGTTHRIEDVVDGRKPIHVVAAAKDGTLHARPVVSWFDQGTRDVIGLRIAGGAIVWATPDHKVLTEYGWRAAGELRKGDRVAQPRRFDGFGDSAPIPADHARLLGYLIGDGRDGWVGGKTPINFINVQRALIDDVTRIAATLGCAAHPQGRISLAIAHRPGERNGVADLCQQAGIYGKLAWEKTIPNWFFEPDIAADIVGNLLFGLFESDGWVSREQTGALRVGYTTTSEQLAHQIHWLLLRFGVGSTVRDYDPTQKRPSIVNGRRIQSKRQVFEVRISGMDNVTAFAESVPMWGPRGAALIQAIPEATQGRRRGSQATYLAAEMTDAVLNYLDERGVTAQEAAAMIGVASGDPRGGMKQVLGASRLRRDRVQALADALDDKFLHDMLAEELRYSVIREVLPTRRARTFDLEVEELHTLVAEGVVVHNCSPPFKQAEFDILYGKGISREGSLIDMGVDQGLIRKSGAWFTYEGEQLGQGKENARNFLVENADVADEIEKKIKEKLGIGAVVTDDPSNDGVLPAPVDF

[12] = molecular target: ATP-binding cassette sub-family B member 6 (Homo sapiens, UniProt Q9NP58); test: concentration-dependent ABCB6 porphyrin transport blockade – K562-ABCB6 cells, flow cytometry, cherry pick 1, dose response (AID 623955); type: functional; conditions: read-out: EC50_MICROM
[13] = molecular target: Tyrosine-protein phosphatase non-receptor type 11 (Homo sapiens, UniProt Q06124); test: PTPN11 enzyme inhibitors – biochemical, selectivity assay for STEP inhibitor project, dose response (AID 602367); type: functional; conditions: read-out: IC50_Mean
[14] = molecular target: Tyrosine-protein phosphatase non-receptor type 5 (Homo sapiens, UniProt P54829); test: PTPN5 enzyme inhibition – biochemical, fluorescence intensity, uHTS hits, confirmation (AID 602372); type: functional; conditions: read-out: IC50_Mean
[15] = molecular target: Dual specificity protein phosphatase 3 (Homo sapiens, UniProt P51452); test: VHR phosphatase inhibition, dose response, selectivity assay for STEP inhibitor project, biochemical (AID 602374); type: functional; conditions: read-out: IC50_Mean
[16] = Luminescence Cell-Based Dose Confirmation HTS to Identify Activators of 5'UTR Stem-Loop Driven Alpha-Synuclein mRNA Translation in H4 Neuroglioblastoma Cells. [Related pubchem assays: 1829 (Project Summary), 1814 (Primary HTS)]; type: functional
[17] = Luminescence Cell-Based Dose Response HTS to Identify Activators of Luciferase Translation or Activity in H4 […] Cells. [Related pubchem assays: 1829 (Project Summary), 1814 (Primary HTS)]; type: functional
H4 = test: Luminescence Cell-Based Dose Response HTS to Identify Activators of 5'UTR Stem-Loop Driven Prion Protein mRNA Translation in H4 Neuroglioblastoma Cells. [Related pubchem assays: 1829 (Project Summary), 1814 (Primary HTS)]; type: functional; conditions: Homo sapiens
[18] = molecular target: Heat shock protein HSP 90-alpha (Homo sapiens, UniProt P07900); type: functional, organism-based
[19] = Fluorescence-based cell-based high throughput dose response assay for inhibitors of the interaction of nucleotide-binding oligomerization domain containing 2 (NOD2) and the receptor-interacting serine-threonine kinase 2 (RIPK2).; type: functional; conditions: Homo sapiens
[20] = reduced cellular PGC1a acetyl-lysine signal – cell-based, cherry-picked samples, dose response (AID 720514); type: functional;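 further: potency may reflect raised or lowered acetylation signal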
[21] = molecular target: T3, Sentrin-specific protease 8 (Homo sapiens, UniProt Q96LD8); type: functional
T3 sequence (Q96LD8 whole entry): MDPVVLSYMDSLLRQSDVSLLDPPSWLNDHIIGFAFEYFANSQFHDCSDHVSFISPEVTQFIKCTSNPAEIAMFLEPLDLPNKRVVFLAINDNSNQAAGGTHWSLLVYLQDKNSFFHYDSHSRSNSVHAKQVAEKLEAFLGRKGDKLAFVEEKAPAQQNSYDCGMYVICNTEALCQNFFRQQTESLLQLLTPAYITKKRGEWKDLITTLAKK

[22] = molecular target: T3, Sentrin-specific protease 8; type: functional; remark: listed apart in the source
Protein S100-A4 = Protein S100-A4 (Homo sapiens, UniProt P26447); test: human S100A4 peptide interaction inhibition curves – biochemical, fluorescence polarization, cherry-picked hits, dose response (AID 687001); type: functional
Sequence of Protein S100-A4 (P26447 whole entry): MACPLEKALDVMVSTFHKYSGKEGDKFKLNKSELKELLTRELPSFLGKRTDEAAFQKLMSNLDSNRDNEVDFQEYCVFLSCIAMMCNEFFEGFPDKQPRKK

Sequence of Dual specificity protein phosphatase 3 (P51452 whole entry): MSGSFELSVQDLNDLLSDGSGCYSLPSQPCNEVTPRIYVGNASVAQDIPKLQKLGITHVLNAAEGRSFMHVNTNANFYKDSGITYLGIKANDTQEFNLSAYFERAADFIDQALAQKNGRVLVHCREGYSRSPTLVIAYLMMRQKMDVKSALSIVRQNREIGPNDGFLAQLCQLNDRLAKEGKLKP
Sequence of Tyrosine-protein phosphatase non-receptor type 11 (Q06124 whole entry): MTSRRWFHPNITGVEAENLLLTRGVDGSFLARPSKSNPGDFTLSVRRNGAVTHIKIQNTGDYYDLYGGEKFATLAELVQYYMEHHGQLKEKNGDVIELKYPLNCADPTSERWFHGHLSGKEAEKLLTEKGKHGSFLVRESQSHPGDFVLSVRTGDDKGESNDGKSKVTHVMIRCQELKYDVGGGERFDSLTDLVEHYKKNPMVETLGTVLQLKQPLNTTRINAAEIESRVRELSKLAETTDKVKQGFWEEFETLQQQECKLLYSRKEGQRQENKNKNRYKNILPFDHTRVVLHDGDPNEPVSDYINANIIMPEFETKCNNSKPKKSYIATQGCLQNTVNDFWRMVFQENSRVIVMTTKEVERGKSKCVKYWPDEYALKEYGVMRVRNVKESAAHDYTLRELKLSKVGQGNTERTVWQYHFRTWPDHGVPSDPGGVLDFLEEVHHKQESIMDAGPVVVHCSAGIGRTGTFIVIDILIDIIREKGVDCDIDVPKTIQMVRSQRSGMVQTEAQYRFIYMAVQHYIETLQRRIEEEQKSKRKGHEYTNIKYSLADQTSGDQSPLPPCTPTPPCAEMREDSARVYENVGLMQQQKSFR
Sequence of Tyrosine-protein phosphatase non-receptor type 5 (P54829 whole entry): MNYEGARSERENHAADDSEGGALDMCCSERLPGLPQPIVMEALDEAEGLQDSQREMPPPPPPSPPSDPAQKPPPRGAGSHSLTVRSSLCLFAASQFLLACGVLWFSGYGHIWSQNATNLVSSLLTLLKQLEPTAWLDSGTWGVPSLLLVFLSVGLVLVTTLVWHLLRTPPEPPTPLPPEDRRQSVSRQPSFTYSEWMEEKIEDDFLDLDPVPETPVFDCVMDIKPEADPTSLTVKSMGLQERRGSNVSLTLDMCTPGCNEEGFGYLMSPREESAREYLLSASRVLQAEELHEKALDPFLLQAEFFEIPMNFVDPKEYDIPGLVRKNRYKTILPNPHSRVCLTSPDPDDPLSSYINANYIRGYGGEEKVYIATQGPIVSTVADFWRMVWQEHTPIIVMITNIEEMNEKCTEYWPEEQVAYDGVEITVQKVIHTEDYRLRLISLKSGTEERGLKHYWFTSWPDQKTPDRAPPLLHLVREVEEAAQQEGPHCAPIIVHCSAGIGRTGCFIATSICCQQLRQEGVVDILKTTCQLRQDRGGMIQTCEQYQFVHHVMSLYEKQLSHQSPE
Sequence of ATP-binding cassette sub-family B member 6 (Q9NP58 whole entry): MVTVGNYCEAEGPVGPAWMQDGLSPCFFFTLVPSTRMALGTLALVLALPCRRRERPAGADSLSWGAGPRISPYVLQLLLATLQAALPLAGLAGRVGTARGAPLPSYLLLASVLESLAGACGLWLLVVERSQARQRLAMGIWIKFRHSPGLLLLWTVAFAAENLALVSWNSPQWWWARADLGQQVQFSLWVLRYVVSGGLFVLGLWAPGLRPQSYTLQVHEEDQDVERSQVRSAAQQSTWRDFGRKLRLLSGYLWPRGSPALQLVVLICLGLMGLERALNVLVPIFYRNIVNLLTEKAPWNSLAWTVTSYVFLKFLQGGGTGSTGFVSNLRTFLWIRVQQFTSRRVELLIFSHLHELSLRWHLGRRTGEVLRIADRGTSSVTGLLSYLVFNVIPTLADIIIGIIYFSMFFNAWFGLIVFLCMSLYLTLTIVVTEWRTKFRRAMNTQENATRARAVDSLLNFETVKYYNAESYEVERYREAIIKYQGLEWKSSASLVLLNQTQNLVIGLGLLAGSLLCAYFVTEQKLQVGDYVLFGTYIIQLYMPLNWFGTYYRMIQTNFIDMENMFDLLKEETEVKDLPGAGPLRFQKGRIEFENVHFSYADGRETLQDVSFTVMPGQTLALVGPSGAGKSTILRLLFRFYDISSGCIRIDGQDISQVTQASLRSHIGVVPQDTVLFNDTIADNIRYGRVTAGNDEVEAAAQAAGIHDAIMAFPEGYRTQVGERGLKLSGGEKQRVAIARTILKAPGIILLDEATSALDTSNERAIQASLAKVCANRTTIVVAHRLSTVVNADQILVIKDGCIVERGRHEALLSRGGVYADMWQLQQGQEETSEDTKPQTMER
Sequence of FAD-linked sulfhydryl oxidase ALR (P55789 whole entry): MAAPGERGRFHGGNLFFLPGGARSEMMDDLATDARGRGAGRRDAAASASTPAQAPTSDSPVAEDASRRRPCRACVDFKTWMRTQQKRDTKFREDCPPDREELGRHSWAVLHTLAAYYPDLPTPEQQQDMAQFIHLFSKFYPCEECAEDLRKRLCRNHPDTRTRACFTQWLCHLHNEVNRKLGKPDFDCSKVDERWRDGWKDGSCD

O=C(COc1ccc(Cl)cc1Cl)N1CCCN(C(=O)COc2ccc(Cl)cc2Cl)CC1
EC50 [1]: > 150 µM (inactive)
EC50 [2]: 2.18 µM (active)
EC50 [3]: 1.39 µM (active)
EC50 [4]: > 30 µM (not active)
AC50 [5]: 3.52 µM (active)
AC50 [6]: 68.3 µM (active)
AC50 [7]: 3.44 µM (active)
AC50 [8]: 5.48 µM (active)
AC50 [9]: 3.24 µM (active)

Cc1cccc(CS(=O)(=O)c2ncc(Cl)c(C(=O)Nc3c(C)cccc3C)n2)c1
AC50 [10]: 0.164 µM (active)
AC50 [11]: 4.28 µM (active)
EC50 (Protein RecA): 4.66 µM (active)
EC50 [12]: 74.5 µM (active)

O=C(NC1CCCCCC1)C(=S)NC1CCCCC1
IC50 [13]: 9.88 µM (active)
IC50 [14]: 56.9 µM (inactive)
IC50 [15]: 3.07 µM (active)

O=c1oc(-c2ccccc2)cc(Cl)c1Cl
EC50 [16]: > 120 µM (not active)
EC50 [17]: > 120 µM (not active)
EC50 (H4): > 60 µM (not active)
AC50 [11]: 10.5 µM (active)
AC50 [18]: 2.64 µM (active)
EC50 (Protein RecA): 4.74 µM (active)
IC50 [19]: 1.15 µM (active)
AC50 [20]: 11.2 µM (active)

COC(=O)CCCC1=CC2=CC(=O)C(C)(OC(=O)c3cccs3)C(=O)C2=CN1C1CCCC1 (configuration not stated)
IC50 [21]: 7.97 µM (active)
IC50 [22]: 5.99 µM (active)

Cc1cc(C)c(S(=O)(=O)NCc2ccc3c(c2)cc(C)n3C)c(C)c1
AC50 (Protein S100-A4): 10.7 µM (active)
